Measurements from patent US8895592B2, “Compounds as cannabinoid receptor ligands” (priority 2008, dated 2014).

Columns and labels:
human CB2 receptors = human CB2 receptors (Homo sapiens (Human), UniProt P34972); assay: human CB2 radioligand binding assay ([3H]CP 55,940 competition); settings: HEK293 membranes, 0.5 nM [3H]CP 55,940
Procedure: HEK293 cells stably expressing human CB2 receptors were grown until a confluent monolayer was formed. Briefly, the cells were harvested and homogenized in TE buffer (50 mM Tris-HCl, 1 mM MgCl2, and 1 mM EDTA) using a polytron for 2×10 second bursts in the presence of protease inhibitors, followed by centrifugation at 45,000×g for 20 minutes. The final membrane pellet was re-homogenized in storage buffer (50 mM Tris-HCl, 1 mM MgCl2, and 1 mM EDTA and 10% sucrose) and frozen at −78° C. until used. Saturation binding reactions were initiated by the addition of membrane preparation (protein concentration of 5 μg/well for human CB2) into wells of a deep well plate containing [^3H]CP 55,940 (120 Ci/mmol, a nonselective CB agonist commercially available from Tocris) in assay buffer (50 mM Tris, 2.5 mM EDTA, 5 mM MgCl2, and 0.5 mg/mL fatty acid free BSA, pH 7.4). After 90 min incubation at 30° C., binding reaction was terminated by the addition of 300 μL/well of cold assay buffer followed by rapid vacuum filtration through a UniFilter-96 GF/C filter plates (pre-soaked in 1 mg/mL BSA for 2 hours). The bound activity was counted in a TopCount using Microscint-20. Saturation experiments were conducted with twelve concentrations of [^3H]CP 55,940 ranging from 0.01 to 8 nM. Competition experiments were conducted with 0.5 nM [^3H]CP 55,940 and five concentrations (0.01 nM to 10 μM) of displacing ligands. The addition of 10 μM unlabeled CP 55,940 (Tocris, Ellisville, Mo.) was used to assess nonspecific binding.

rat CB2 receptors [1] = molecular target: T1, rat CB2 receptors (Rattus norvegicus (Rat), UniProt Q9QZN9); assay: rat CB2 cyclase functional assay (HitHunter cAMP); type: cell-based; settings: HEK cells, forskolin 18 μM
Procedure: The cyclase functional assays were performed using the HitHunter™ cAMP assay kit from DiscoveRx (Fremont, Calif.) according to vendor's protocol. Briefly, HEK cells expressing CB2 or CB1 receptors (rat or human) were detached using cell dissociation buffer (Invitrogen, Carlsbad, Calif.), dispersed and placed in suspension at 10,000 cells per well in 96 well plates prior to the assay. Cell suspensions were incubated at 37° C. for 20 min with variable concentrations of test ligands and or 10 μM CP 55,940-positive control in the presence of a fixed concentration of forskolin (18 μM for rat CB2 and 37 μM for rat CB1) in Dulbescco's phosphate-buffered saline (Invitrogen, Carlsbad, Calif.) supplemented with bovine serum albumin (0.01% final concentration). The reactions were terminated by the addition of lysis buffer and the luminescence was detected following the procedure according to the manufacturer's instructions. EC50 values were calculated using sigmoidal dose-response curve fitting from Prism (GraphPad).

rat CB2 receptors [2] = molecular target: T1, rat CB2 receptors; assay: rat CB2 radioligand binding assay ([3H]CP 55,940 competition); settings: HEK293 membranes, 0.5 nM [3H]CP 55,940
Procedure: HEK293 cells stably expressing rat CB2 receptors were grown until a confluent monolayer was formed. Briefly, the cells were harvested and homogenized in TE buffer (50 mM Tris-HCl, 1 mM MgCl2, and 1 mM EDTA) using a polytron for 2×10 second bursts in the presence of protease inhibitors, followed by centrifugation at 45,000×g for 20 minutes. The final membrane pellet was re-homogenized in storage buffer (50 mM Tris-HCl, 1 mM MgCl2, and 1 mM EDTA and 10% sucrose) and frozen at −78° C. until used. Saturation binding reactions were initiated by the addition of membrane preparation (protein concentration of 20 μg/well for rat CB2) into wells of a deep well plate containing [^3H]CP 55,940 (120 Ci/mmol, a nonselective CB agonist commercially available from Tocris) in assay buffer (50 mM Tris, 2.5 mM EDTA, 5 mM MgCl2, and 0.5 mg/mL fatty acid free BSA, pH 7.4). After 45 min incubation at 30° C., binding reaction was terminated by the addition of 300 μl/well of cold assay buffer followed by rapid vacuum filtration through a UniFilter-96 GF/C filter plates (pre-soaked in 1 mg/mL BSA for 2 hours). The bound activity was counted in a TopCount using Microscint-20. Saturation experiments were conducted with twelve concentrations of [^3H]CP 55,940 ranging from 0.01 to 8 nM. Competition experiments were conducted with 0.5 nM [^3H]CP 55,940 and five concentrations of displacing ligands selected from the range of 0.01 nM to 10 μM. The addition of 10 μM unlabeled CP 55,940 (Tocris, Ellisville, Mo.) was used to assess nonspecific binding.

T1 sequence (Q9QZN9 whole entry): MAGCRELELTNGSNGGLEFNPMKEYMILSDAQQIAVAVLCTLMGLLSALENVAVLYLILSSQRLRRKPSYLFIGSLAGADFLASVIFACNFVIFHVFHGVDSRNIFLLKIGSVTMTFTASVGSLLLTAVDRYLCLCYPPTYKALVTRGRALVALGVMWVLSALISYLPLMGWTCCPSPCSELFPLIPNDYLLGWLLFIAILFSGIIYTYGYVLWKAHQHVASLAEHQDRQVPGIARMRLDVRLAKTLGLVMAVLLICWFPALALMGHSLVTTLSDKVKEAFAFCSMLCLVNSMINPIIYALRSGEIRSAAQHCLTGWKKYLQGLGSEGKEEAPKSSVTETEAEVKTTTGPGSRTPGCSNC
Sequence of human CB2 receptors (P34972 whole entry): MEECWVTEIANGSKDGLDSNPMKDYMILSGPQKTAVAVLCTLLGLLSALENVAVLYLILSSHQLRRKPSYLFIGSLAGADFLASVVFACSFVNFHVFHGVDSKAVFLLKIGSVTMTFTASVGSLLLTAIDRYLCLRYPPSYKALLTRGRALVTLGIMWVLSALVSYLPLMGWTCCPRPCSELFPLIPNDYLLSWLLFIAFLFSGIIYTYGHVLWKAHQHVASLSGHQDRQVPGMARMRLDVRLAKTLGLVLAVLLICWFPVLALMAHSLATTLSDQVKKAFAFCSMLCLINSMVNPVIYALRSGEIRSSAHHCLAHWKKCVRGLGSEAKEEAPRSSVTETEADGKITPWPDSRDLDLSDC

CN1CCC[C@H]1COc1ccc(C(F)(F)F)cc1C(=O)/N=c1\sc(C(C)(C)C)cn1CC1(O)CCC1 [Example 11, N-[(2Z)-5-tert-butyl-3-[(1-hydroxycyclobutyl)methyl]-1,3-thiazol-2(3H)-ylidene]-2-{[(2S)-1-methylpyrrolidin-2-yl]methoxy}-5-(trifluoromethyl)benzamide]
Ki (human CB2 receptors): 95 nM
EC50 (rat CB2 receptors [1]): 0.41 nM
Ki (rat CB2 receptors [2]): 32 nM

CC(C)Cn1cc(C(C)(C)C)s/c1=N\C(=O)c1cc(C(F)(F)F)ccc1OCC1CCOC1 (stereo not drawn) [Example 8, N-[(2Z)-5-tert-butyl-3-isobutyl-1,3-thiazol-2(3H)-ylidene]-2-(tetrahydrofuran-3-ylmethoxy)-5-(trifluoromethyl)benzamide]
Ki (human CB2 receptors): 5 nM
EC50 (rat CB2 receptors [1]): 0.058 nM
Ki (rat CB2 receptors [2]): 2.4 nM

CC(C)Cn1cc(C(C)(C)C)s/c1=N\C(=O)c1cc(C(F)(F)F)ccc1OCCN1CCCC1 [Example 7, N-[(2Z)-5-tert-butyl-3-isobutyl-1,3-thiazol-2(3H)-ylidene]-2-(2-pyrrolidin-1-ylethoxy)-5-(trifluoromethyl)benzamide]
Ki (human CB2 receptors): 32 nM
EC50 (rat CB2 receptors [1]): 1.3 nM
Ki (rat CB2 receptors [2]): 12 nM

CCCCn1/c(=N/C(=O)c2cc(C(F)(F)F)ccc2OCC(C)(C)O)sc2ccncc21 [Example 21, N-[(2Z)-3-butyl[1,3]thiazolo[4,5-c]pyridin-2(3H)-ylidene]-2-(2-hydroxy-2-methylpropoxy)-5-(trifluoromethyl)benzamide]
Ki (human CB2 receptors): 5.4 nM
EC50 (rat CB2 receptors [1]): 0.58 nM
Ki (rat CB2 receptors [2]): 9.3 nM

CC(=O)OCCOc1ccc(C(F)(F)F)cc1C(=O)/N=c1\sc(C(C)(C)C)cn1CC(C)C [Example 18, 2-[2-({[(2Z)-5-tert-butyl-3-isobutyl-1,3-thiazol-2(3H)-ylidene]amino}carbonyl)-4-(trifluoromethyl)phenoxy]ethyl acetate]
Ki (human CB2 receptors): 16 nM
EC50 (rat CB2 receptors [1]): 0.19 nM
Ki (rat CB2 receptors [2]): 1.4 nM

CC(C)Cn1cc(C(C)(C)C)s/c1=N\C(=O)c1cc(C(F)(F)F)ccc1OC[C@@H]1CCN1 [Example 14, 2-[(2S)-azetidin-2-ylmethoxy]-N-[(2Z)-5-tert-butyl-3-isobutyl-1,3-thiazol-2(3H)-ylidene]-5-(trifluoromethyl)benzamide]
Ki (human CB2 receptors): 44 nM
EC50 (rat CB2 receptors [1]): 0.36 nM
Ki (rat CB2 receptors [2]): 13 nM

CCCCn1/c(=N/C(=O)c2cc(C(F)(F)F)ccc2OCCNC(C)=O)sc2ccncc21 [Example 25, 2-[2-(acetylamino)ethoxy]-N-[(2Z)-3-butyl[1,3]thiazolo[4,5-c]pyridin-2(3H)-ylidene]-5-(trifluoromethyl)benzamide]
Ki (human CB2 receptors): 1.5 nM
EC50 (rat CB2 receptors [1]): 0.11 nM
Ki (rat CB2 receptors [2]): 3.6 nM

CC(C)Cn1cc(C(C)(C)C)s/c1=N\C(=O)c1cc(Br)ccc1OC[C@@H]1CCCN1C [Example 1, 5-bromo-N-[(2Z)-5-tert-butyl-3-isobutyl-1,3-thiazol-2(3H)-ylidene]-2-{[(2S)-1-methylpyrrolidin-2-yl]methoxy}benzamide]
Ki (human CB2 receptors): 27 nM
EC50 (rat CB2 receptors [1]): 0.75 nM
Ki (rat CB2 receptors [2]): 19 nM

CCCCn1cc(C(C)(C)C)s/c1=N\C(=O)c1cc(Cl)ccc1OCC(N)=O [Example 2, 2-(2-amino-2-oxoethoxy)-N-[(2Z)-3-butyl-5-tert-butyl-1,3-thiazol-2(3H)-ylidene]-5-chlorobenzamide]
Ki (human CB2 receptors): 3.1 nM
EC50 (rat CB2 receptors [1]): 0.07 nM
Ki (rat CB2 receptors [2]): 1.1 nM

CC(C)Cn1cc(C(C)(C)C)s/c1=N\C(=O)c1cc(C(F)(F)F)ccc1OC[C@@H]1CCCN1C [Example 5, N-[(2Z)-5-tert-butyl-3-isobutyl-1,3-thiazol-2(3H)-ylidene]-2-{[(2S)-1-methylpyrrolidin-2-yl]methoxy}-5-(trifluoromethyl)benzamide]
Ki (human CB2 receptors): 39 nM
EC50 (rat CB2 receptors [1]): 1.2 nM
Ki (rat CB2 receptors [2]): 18 nM

CC(C)Cn1cc(C(C)(C)C)s/c1=N\C(=O)c1cc(C(F)(F)F)ccc1OC[C@@H]1CCN1C [Example 12, N-[(2Z)-5-tert-butyl-3-isobutyl-1,3-thiazol-2(3H)-ylidene]-2-{[(2S)-1-methylazetidin-2-yl]methoxy}-5-(trifluoromethyl)benzamide]
Ki (human CB2 receptors): 37 nM
EC50 (rat CB2 receptors [1]): 3.5 nM
Ki (rat CB2 receptors [2]): 26 nM

CC(C)Cn1cc(C(C)(C)C)s/c1=N\C(=O)c1cc(C(F)(F)F)ccc1OCc1ccco1 [Example 3, N-[(2Z)-5-tert-butyl-3-isobutyl-1,3-thiazol-2(3H)-ylidene]-2-(2-furylmethoxy)-5-(trifluoromethyl)benzamide]
Ki (human CB2 receptors): 7.4 nM
EC50 (rat CB2 receptors [1]): 1.9 nM
Ki (rat CB2 receptors [2]): 8.7 nM

CC(C)Cn1cc(C(C)(C)C)s/c1=N\C(=O)c1cc(C(F)(F)F)ccc1OCCO [Example 19, N-[(2Z)-5-tert-butyl-3-isobutyl-1,3-thiazol-2(3H)-ylidene]-2-(2-hydroxyethoxy)-5-(trifluoromethyl)benzamide]
Ki (human CB2 receptors): 0.73 nM
EC50 (rat CB2 receptors [1]): 0.13 nM
Ki (rat CB2 receptors [2]): 0.15 nM

CCCCn1cc(C(C)(C)C)s/c1=N\C(=O)c1cc(C(F)(F)F)ccc1OC[C@@H]1CCCN1C [Example 9, N-[(2Z)-3-butyl-5-tert-butyl-1,3-thiazol-2(3H)-ylidene]-2-{[(2S)-1-methylpyrrolidin-2-yl]methoxy}-5-(trifluoromethyl)benzamide]
Ki (human CB2 receptors): 9.2 nM
EC50 (rat CB2 receptors [1]): 0.97 nM
Ki (rat CB2 receptors [2]): 7.7 nM

CCCCn1/c(=N/C(=O)c2cc(C(F)(F)F)ccc2OC[C@H](C)O)sc2ccncc21 [Example 29, N-[(2Z)-3-butyl[1,3]thiazolo[4,5-c]pyridin-2(3H)-ylidene]-2-{[(2S)-2-hydroxypropyl]oxy}-5-(trifluoromethyl)benzamide]
Ki (human CB2 receptors): 2 nM
EC50 (rat CB2 receptors [1]): 1.4 nM
Ki (rat CB2 receptors [2]): 2.5 nM

CC(C)Cn1cc(C(C)(C)C)s/c1=N\C(=O)c1cc(Cl)ccc1OCC1CCO1 (stereo not drawn) [Example 4, N-[(2Z)-5-tert-butyl-3-isobutyl-1,3-thiazol-2(3H)-ylidene]-5-chloro-2-(oxetan-2-ylmethoxy)benzamide]
Ki (human CB2 receptors): 9 nM
EC50 (rat CB2 receptors [1]): 0.23 nM
Ki (rat CB2 receptors [2]): 5.2 nM
